Reference: publication PMC3546729, “Electrochemical Characterization of Escherichia coli Adaptive Response Protein AidB” (International Journal of Molecular Sciences, 2012)

Experiments:
AidB [1] = biological target: T1, AidB (Escherichia coli, UniProt P33224); test: UV-visible spectroscopy and redox potentiometry of bound flavin; type: binding; conditions: bound FAD of the purified protein; pH 8.0, 300 mM NaCl, anaerobic
T1 construct: predominantly tetramer in solution
T1 sequence (P33224 1-541): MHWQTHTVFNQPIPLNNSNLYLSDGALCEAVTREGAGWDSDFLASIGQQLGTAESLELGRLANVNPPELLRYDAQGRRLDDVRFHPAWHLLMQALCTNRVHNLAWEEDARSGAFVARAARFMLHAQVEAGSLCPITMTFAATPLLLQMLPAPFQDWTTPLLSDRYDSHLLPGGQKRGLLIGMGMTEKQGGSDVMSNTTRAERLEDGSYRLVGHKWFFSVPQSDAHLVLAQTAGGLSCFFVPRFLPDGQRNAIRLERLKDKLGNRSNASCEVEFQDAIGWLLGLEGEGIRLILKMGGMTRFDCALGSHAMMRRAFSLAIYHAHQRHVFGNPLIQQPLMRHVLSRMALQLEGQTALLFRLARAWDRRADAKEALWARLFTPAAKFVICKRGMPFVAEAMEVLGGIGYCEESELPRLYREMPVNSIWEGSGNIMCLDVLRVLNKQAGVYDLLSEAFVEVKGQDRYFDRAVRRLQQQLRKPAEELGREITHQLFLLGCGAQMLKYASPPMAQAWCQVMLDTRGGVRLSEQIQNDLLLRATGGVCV

AidB [2] = biological target: T1, AidB; test: shift of flavin midpoint reduction potential (xanthine/xanthine oxidase redox potentiometry), two-state binding fit; conditions: read-out: Kd^app

SMILES	UV-visible spectroscopy and redox potentiometry of bound flavin (AidB [1])	Kd (AidB [2]) [µM]
Cc1cc2nc3c(=O)[nH]c(=O)nc-3n(C[C@H](O)[C@H](O)[C@H](O)COP(=O)(O)OP(=O)(O)OC[C@H]3O[C@@H](n4cnc5c(N)ncnc54)[C@H](O)[C@@H]3O)c2cc1C [FAD]	Reduction potentials of the AidB FAD cofactor were measured using the xanthine/xanthine oxidase system	
CC(C)CC(=O)SCCNC(=O)CCNC(=O)[C@H](O)C(C)(C)COP(=O)(O)OP(=O)(O)OC[C@H]1O[C@@H](n2cnc3c(N)ncnc32)[C@H](O)[C@@H]1OP(=O)(O)O [IVCoA]		87 ± 27
